Assay results reported in PubChem BioAssay (NCI).
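Interpolation was linear, between the two tested concentrations surrounding the appropriate level; five concentrations were tested over 48 hours in 96-well plates. TGI: total growth inhibition.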

Legend:
Experiment in all cases: growth of human tumour cells (NCI), 48 h
SK-MEL-2 melanoma = test system: SK-MEL-2 melanoma
CCRF-CEM leukemia = test system: CCRF-CEM leukemia
NCI-H522 lung = test system: NCI-H522 lung
SF-268 CNS = test system: SF-268 CNS
SN12C renal = test system: SN12C renal
SW-620 colon = test system: SW-620 colon
HOP-92 NSCLC = test system: HOP-92 NSCLC
OVCAR-3 ovarian = test system: OVCAR-3 ovarian
RXF 393 renal = test system: RXF 393 renal
NCI/ADR-RES ovarian = test system: NCI/ADR-RES ovarian
RPMI-8226 leukemia = test system: RPMI-8226 leukemia
IGROV1 ovarian = test system: IGROV1 ovarian
HCT-116 colon = test system: HCT-116 colon
UACC-62 melanoma = test system: UACC-62 melanoma
HCT-15 colon = test system: HCT-15 colon
EKVX NSCLC = test system: EKVX NSCLC
MALME-3M melanoma = test system: MALME-3M melanoma
SK-MEL-5 melanoma = test system: SK-MEL-5 melanoma
HOP-62 NSCLC = test system: HOP-62 NSCLC
MOLT-4 leukemia = test system: MOLT-4 leukemia

Row | SMILES | TGI (SK-MEL-2 melanoma) [µM] | TGI (CCRF-CEM leukemia) [µM] | TGI (NCI-H522 lung) [µM] | TGI (SF-268 CNS) [µM] | TGI (SN12C renal) [µM] | TGI (SW-620 colon) [µM] | TGI (HOP-92 NSCLC) [µM] | TGI (OVCAR-3 ovarian) [µM] | TGI (RXF 393 renal) [µM] | TGI (NCI/ADR-RES ovarian) [µM] | TGI (RPMI-8226 leukemia) [µM] | TGI (IGROV1 ovarian) [µM] | TGI (HCT-116 colon) [µM] | TGI (UACC-62 melanoma) [µM] | TGI (HCT-15 colon) [µM] | TGI (EKVX NSCLC) [µM] | TGI (MALME-3M melanoma) [µM] | TGI (SK-MEL-5 melanoma) [µM] | TGI (HOP-62 NSCLC) [µM] | TGI (MOLT-4 leukemia) [µM]
1 | COc1ccc(N[C@@H]2c3cc4c(cc3C(c3cc(OC)c(O)c(OC)c3)[C@H]3C(=O)OCC32)OCO4)cc1OC (stereo partly drawn) | > 30.4 | > 39.3 | > 25.3 | > 56.7 | > 72.9 | > 100 | > 100 | > 28.4 | > 26.9 | > 100 | > 31.7 | > 75.7 | > 42.7 | > 39.2 | > 100 | > 100 | > 40.7 | > 31.7 |  | 
2 | COc1cc(C(=O)OC2CC34CCNC35CC(OC5(OC)C2O)c2cc3c(cc24)OCO3)ccc1O (stereo not drawn) | > 100 | > 100 | > 100 | > 100 | > 100 | > 100 | > 100 | > 100 | > 100 | > 100 | > 100 | > 100 | > 100 | > 100 | > 100 | > 100 | > 100 | > 100 | > 100 | > 100
3 | S=C1Cc2c(-c3ccccc3)cc(-c3ccc(Cl)cc3)nc2-c2ccccc2N1 | 20.9 | > 100 | > 24.2 | 6.8 | 5.26 | 11.6 | 3.53 | 9.9 | 11.2 | > 27.3 | > 100 | 4.36 | 13.7 | > 20.7 | > 54.7 | > 27.1 | 13 | > 100 | 3.16 | > 100
4 | CCCCCC(/C=C/c1ncccc1OCCCCCC(=O)O)=N\NC1=NCCN1 | > 100 | > 100 | > 100 | > 100 | > 100 | > 100 | > 100 | > 100 | > 100 |  | > 100 | > 100 | > 100 | > 100 | > 100 | > 100 | > 100 |  | > 100 | > 100
5 | C[Si](C)(C)/C=C/CN1C(=O)CCC1=O | > 100 | > 100 | > 100 | > 100 | > 100 | > 100 | > 100 | > 100 |  |  | > 100 | > 100 | > 100 | > 100 | > 100 | > 100 | > 100 | > 100 |  | 
6 | COC(=O)c1cc2c(cc1C(=O)OC)[C@@]1(C)CCCC(C)(C)C1CC2 (stereo partly drawn) | 46.7 | 42.1 | 41.5 | 31.2 | 35.2 | 42.2 | 26.2 | 25 | 23.2 | 40.8 | 34.3 | 31.5 | 45.8 | 32.5 | 35.3 | 30.1 | 15.3 | 35.4 | 61.6 | > 100
7 | Cc1ccc(CN2CCN(Cc3ccc(C)o3)C(C)C2)o1 (stereo not drawn) | > 100 | > 100 | > 100 | > 100 | > 100 | > 100 | > 100 | > 100 | > 100 | > 100 | > 100 | > 100 | > 100 | > 100 | > 100 | > 100 | > 100 | > 100 | > 100 | > 100
8 | CC(=O)c1cccc(Nc2nc3ccccc3c3[nH]c4ccccc4c23)c1 | 24.2 | > 100 | 8.11 | 17.3 | > 100 | > 100 | 22.2 | 6.56 |  | > 100 | 9.25 | 22.3 | > 100 | 5.71 | > 100 | 21.4 | 13.2 |  | 42 | 
9 | N#CCCN(CCC#N)c1ccc(/C=C(/NC(=O)Nc2ccccc2Cl)NC(=O)c2cc([N+](=O)[O-])ccc2Cl)cc1 | > 100 | > 100 | > 100 | > 100 | > 100 | > 100 | > 100 | > 100 | > 100 |  | > 100 | > 100 | > 100 | > 100 | > 100 | > 100 | > 100 | > 100 | > 100 | > 100
10 | O=S(=O)(CF)OCCCCOS(=O)(=O)CF | > 100 | > 100 | > 100 | > 100 | > 100 | > 100 | 82.6 | > 100 |  |  | > 100 | > 100 | > 100 | > 100 | > 100 | > 100 | > 100 | > 100 |  | > 100
11 | CN(C(=O)c1ccccc1)c1ccc2c(c1)C(=O)c1ccccc1C2=O | > 100 | > 100 | > 100 | > 100 | > 100 | > 100 | > 100 | > 100 | > 100 |  | > 100 | > 100 | > 100 | > 100 | > 100 | > 100 | > 100 |  | > 100 | > 100
12 | CCCCCCCCCCCCCCCCCCOCC(O)CO (stereo not drawn) | > 25 | > 22.5 | 20.9 | > 25 | > 25 | > 17 | 24.7 | > 25 | > 24.1 | > 25 | > 25 | > 23.7 | > 25 | > 25 | > 25 | > 14.1 | > 21.1 | 3.65 | 22.7 | > 25
